Assay results published in paper PMC12475274, “Harnessing indole scaffolds to identify small-molecule IRE1α inhibitors modulating XBP1 mRNA splicing” (Nature Communications, 2025).
Values joined by “and” are separate entries in the source; they are usually repeats but may differ in a detail not shown here. Identical values can stand only once. “Also recorded” adds a separate entry of the source. Like-named read-outs stand apart in the source and are kept apart here.

Key:
[1] = target: T1, phosphorylated IRE1α (p-IRE1α) (Homo sapiens, UniProt O75460); test: FRET-based IRE1α RNase activity assay, phosphorylated IRE1α; format: biochemical; conditions: for inhibition(%): p-IRE1a
T1 construct: Human IRE1α kinase and RNase domain (residues 547–977) was subcloned into pLIB plasmid; His tag (with TEV cleavage site) (N, cleaved yes); made in house; host or cells: Sf9 insect cells, baculovirus (Bac-to-Bac)
T1 sequence (O75460 547-977): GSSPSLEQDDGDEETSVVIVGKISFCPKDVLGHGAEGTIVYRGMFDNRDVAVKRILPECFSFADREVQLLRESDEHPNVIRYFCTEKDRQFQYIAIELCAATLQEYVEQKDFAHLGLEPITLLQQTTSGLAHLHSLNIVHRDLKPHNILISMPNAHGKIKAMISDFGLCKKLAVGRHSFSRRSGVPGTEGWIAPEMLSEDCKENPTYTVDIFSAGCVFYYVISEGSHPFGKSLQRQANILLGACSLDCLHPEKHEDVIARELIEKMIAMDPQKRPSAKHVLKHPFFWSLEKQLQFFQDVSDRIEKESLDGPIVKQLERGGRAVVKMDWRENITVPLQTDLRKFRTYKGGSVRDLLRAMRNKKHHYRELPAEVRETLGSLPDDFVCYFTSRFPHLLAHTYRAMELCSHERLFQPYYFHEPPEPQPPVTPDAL
Outline: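 Sf9-expressed IRE1α kinase-RNase domain (residues 547–977), fully phosphorylated fraction, 4 nM, preincubated with compound 30 min at RT, then 200 nM FAM/BHQ1 XBP1 RNA added in HEPES pH 7.5 buffer. Fluorescence (ex 485/em 535 nm) read kinetically for 1 h at RT; inhibition from linear slopes, IC50 by concentration-response fit.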

dephosphorylated IRE1α = target: T2, dephosphorylated IRE1α (Homo sapiens, UniProt O75460); test: Isothermal titration calorimetry (ITC), incl. competitive ITC; format: binding
T2 construct: Human IRE1α kinase and RNase domain (residues 547–977) was subcloned into pLIB plasmid; His tag (with TEV cleavage site) (N, cleaved yes); made in house; host or cells: Sf9 insect cells, baculovirus (Bac-to-Bac)
T2 sequence (O75460 547-977): as above
Experimental: The dephosphorylated IRE1α protein was used directly after purification, ITC experiments were carried out at 25 °C using MicroCal PEAQ-ITC system (Malvern) in buffer 25 mM HEPES pH 7.5, 250 mM NaCl, 1 mM TCEP, 5% glycerol, 1% DMSO. The solution was diluted to a final 1% DMSO in the same buffer as for the protein. Protein and compound solution were degassed before loading to the cell and syringe respectively. Unless otherwise noted, 200 μM of compound was loaded into the syringe and 10 μM of IRE1α protein was loaded into the sample cell. For competitive ITC, the protein was incubated with the indicated compound at 25 °C (final 1% DMSO) before loading to the cell. Instrument settings were: reference power 10 μcal/s, feedback high, stir speed 750 rpm, initial delays 60 s, injection spacing 150 s, injection duration 4 s. All experiments were performed with a single 0.4 μL injection followed by 18 (or 15), 2 μL injections. Data were analyzed using MicroCal PEAQ-ITC analysis software. The one set of sites fitting model is used for the calorimetry data analysis, with cell concentration and syringe concentration as the input parameters. For compound IA01, the N was set to 1 to improve the fit.

IRE1α = target: T3, IRE1α (Homo sapiens, UniProt O75460); test: Differential scanning fluorimetry (DSF), IRE1α; format: binding; conditions: for IRE1a ∆Tm: DSF, individual measurements; for IRE1 ∆Tm(°C): Supplementary Fig. 3c, replicate values
T3 construct: Human IRE1α kinase and RNase domain (residues 547–977) was subcloned into pLIB plasmid; His tag (with TEV cleavage site) (N, cleaved yes); made in house; host or cells: Sf9 insect cells, baculovirus (Bac-to-Bac)
T3 sequence (O75460 547-977): as above
Experimental: (§1) The DSF assay was performed in PBS buffer containing 2 mM DTT, in a total reaction volume of 20 µl with indicated compounds (final 1% DMSO) and the final concentration of 1 µM IRE1α protein and 5× SYPRO Orange fluorescent dye (5000× in DMSO, Sigma S5692). The melting curve was measured at a temperature range from 25 °C to 95 °C and in increments of 1 °C for 30 s using a Bio-Rad CFX96 Real-Time PCR detection system with the FRET scan mode. The melting temperature (Tm) was obtained by fitting the melting curve to Boltzmann sigmoidal in GraphPad Prism and the thermal shift (∆Tm) was calculated by using the equation: ∆Tm = Tm(compound) -Tm(DMSO).

p-IRE1α = target: T4, p-IRE1α (Homo sapiens, UniProt O75460); test: Differential scanning fluorimetry (DSF), p-IRE1α; format: binding; conditions: for p-IRE1a ∆Tm: DSF, individual measurements; for p-IRE1a ∆Tm(°C): individual replicate values
T4 construct: Human IRE1α kinase and RNase domain (residues 547–977) was subcloned into pLIB plasmid; His tag (with TEV cleavage site) (N, cleaved yes); made in house; host or cells: Sf9 insect cells, baculovirus (Bac-to-Bac)
T4 sequence (O75460 547-977): as above
Experimental: as §1

[2] = FRET assay, RNase activity, mean (± SEM), read-out: p-IRE1α IC50
[3] = FRET assay, source data, unit from Fig. 3, read-out: p-IRE1a IC50, individual replicates (n1-n4)
[4] = 200 μM compound into 10 μM IRE1α, no competitor

`CCOC(=O)Nc1cccc2c(Oc3ncccc3-c3ccnc(N[C@H]4CCCNC4)n3)c(C)ccc12` [Compound G1749, reference compound] was tested, and the “effect on p-IRE1α RNase activity in the FRET assay” value [1] was “inhibiting p-IRE1α; also recorded: inhibit the p-IRE1α RNase activity”, the “inhibition(%)” value ([1]; 5.55556 μM) was 93.9541% and 94.7061% and 91.8428% and 92.9515% and the “inhibition(%)” value ([1]; 16.6667 μM) was 92.2815% and 93.8095% and 92.7972% and 92.696%. For the same compound, the “inhibition(%)” value ([1]; 50 μM) was 92.1465% and 91.4042% and 91.8332% and 89.3845% and the “KD (competition ITC)” value (dephosphorylated IRE1α; G1749 to IRE1α with 1 mM IA107, ND, not detectable) was “did not show a detectable binding”.

With `COc1ccc2c(c1)c(CCC(=O)O)c(C)n2C(=O)c1ccc(Cl)cc1` [IA01] the inhibition at 50 µM ([1]; FRET assay at 50 μM, mean (± SEM), read-out: p-IRE1α inhibition%) was 99.3%, the “p-IRE1a Inhibiton%, individual measurements” value ([1]; FRET assay at 50 μM, source data, 50 µM) was 102.461% and 99.7014% and 101.879% and 92.3671% and 96.3072% and the inhibition at 50 µM ([1]; FRET assay at 50 μM, source data, read-out: p-IRE1a Inhibiton%, individual measurements) was 103%. The IC50 [1, 2] was 0.32 µM, the IC50 [1, 3] was 0.544 µM and 0.136 µM and 0.264 µM and 0.325 µM and the “stabilization of IRE1α in DSF” value (IRE1α) was “stabilized IRE1α concentration-dependently”. For the same compound, the “IRE1a ∆Tm” value (IRE1α; compound 25 μM) was 1.17 °C and 1.02 °C, the “IRE1a ∆Tm” value (IRE1α; compound 50 μM) was 1.57 °C and 1.89 °C and the “-TΔS (ITC)” value (dephosphorylated IRE1α; [4]) was -2.14 kcal/mol. For the same compound, the “N(sites) (ITC)” value (dephosphorylated IRE1α; [4]) was 1, the “ΔG (ITC)” value (dephosphorylated IRE1α; [4]) was -7.62 kcal/mol and the “ΔH (ITC)” value (dephosphorylated IRE1α; [4]) was -5.48 ± 2.28 kcal/mol. For the same compound, the “stabilization of p-IRE1α in DSF” value (p-IRE1α) was “concentration-dependently stabilized”, the “p-IRE1a ∆Tm” value (p-IRE1α; compound 25 μM) was 0.52 °C and 0.47 °C and the “p-IRE1a ∆Tm” value (p-IRE1α; compound 50 μM) was 0.91 °C and 1.02 °C.

In the case of `COc1ccc2c(c1)c(CCC(=O)O)c(C)n2C(=O)c1ccc2ccccc2c1` [IA34], the “p-IRE1α IC50” value ([1]; FRET assay, RNase activity, mean (± SEM)) is reported as “IC₅₀ not reached”, the IC50 [1, 2] is reported as greater than 20 µM and the “inhibition(%)” value ([1]; IA34 0.000847 μM, Supplementary Fig. 3b, replicate values) is reported as 2.43% and -1.86% and 1.39%. The “inhibition(%)” value ([1]; IA34 0.00254 μM, Supplementary Fig. 3b, replicate values) was -5.52% and -18.14% and 21.30% and 14.33%, the “inhibition(%)” value ([1]; IA34 0.007621 μM, Supplementary Fig. 3b, replicate values) was 0.79% and -13.95% and -1.17% and 1.14% and the “inhibition(%)” value ([1]; IA34 0.022862 μM, Supplementary Fig. 3b, replicate values) was 1.11% and -4.73% and 39.51% and 0.29%. The “inhibition(%)” value ([1]; IA34 0.068587 μM, Supplementary Fig. 3b, replicate values) was -18.24% and -15.02% and -11.07% and -8.20%, the “inhibition(%)” value ([1]; IA34 0.205761 μM, Supplementary Fig. 3b, replicate values) was -19.34% and -16.85% and 12.47% and -7.35% and the “inhibition(%)” value ([1]; IA34 0.617284 μM, Supplementary Fig. 3b, replicate values) was 15.53% and 10.67% and -18.52% and -10.41%. For the same compound, the “inhibition(%)” value ([1]; IA34 1.85185 μM, Supplementary Fig. 3b, replicate values) was -19.37% and -18.05% and -6.66% and -19.44%, the “inhibition(%)” value ([1]; IA34 5.55556 μM, Supplementary Fig. 3b, replicate values) was 14.49% and 0.73% and 11.46% and -10.03% and the “inhibition(%)” value ([1]; IA34 16.6667 μM, Supplementary Fig. 3b, replicate values) was 26.07% and 13.29% and -8.49% and -17.54%. For the same compound, the “inhibition(%)” value ([1]; IA34 50 μM, Supplementary Fig. 3b, replicate values) was -20.79% and 2.08% and 7.61% and 4.39%, the “stabilization of IRE1α in DSF” value (IRE1α) was “did not show any detectable changes” and the “binding to IRE1α in ITC” value (dephosphorylated IRE1α) was “no binding signal”. For the same compound, the “p-IRE1a ∆Tm(°C)” value (p-IRE1α; compound 6.25 μM) was 0.04 °C and -0.01 °C, the “p-IRE1a ∆Tm(°C)” value (p-IRE1α; compound 12.5 μM) was 0 °C and -0.08 °C and the “p-IRE1a ∆Tm(°C)” value (p-IRE1α; compound 25 μM) was 0.02 °C and 0.03 °C. The “p-IRE1a ∆Tm(°C)” value (p-IRE1α; compound 50 μM) was 0.03 °C and 0.12 °C.

In the case of `COc1ccc2c(c1)c(CCC(=O)O)c(C)n2C(=O)c1ccccc1` [IA64], the IC50 [1, 2] is reported as 0.0374 µM, the IC50 ([1]; FRET assay, read-out: p-IRE1α IC50 (RNase activity)) is reported as 0.03 µM and the IC50 [1, 3] is reported as 0.061 µM and 0.017 µM and 0.034 µM and 0.026 µM. For the same compound, the “stabilization of IRE1α in DSF” value (IRE1α) was “concentration-dependently stabilized”, the “IRE1 ∆Tm(°C)” value (IRE1α; compound 6.25 μM) was 1.2 °C and 1.21 °C and the “IRE1 ∆Tm(°C)” value (IRE1α; compound 12.5 μM) was 1.94 °C and 2.05 °C. For the same compound, the “IRE1 ∆Tm(°C)” value (IRE1α; compound 25 μM) was 2.82 °C and 2.92 °C, the “IRE1 ∆Tm(°C)” value (IRE1α; compound 50 μM) was 3.88 °C and the Kd (dephosphorylated IRE1α; titrating 200 μM compound into 10 μM IRE1α, no competitor (DMSO), read-out: KD (ITC)) was 2.96 µM. For the same compound, the “p-IRE1a ∆Tm(°C)” value (p-IRE1α; compound 6.25 μM) was 0.67 °C and 0.63 °C, the “p-IRE1a ∆Tm(°C)” value (p-IRE1α; compound 12.5 μM) was 1.12 °C and 1.05 °C and the “p-IRE1a ∆Tm(°C)” value (p-IRE1α; compound 25 μM) was 1.46 °C and 1.49 °C. For the same compound, the “p-IRE1a ∆Tm(°C)” value (p-IRE1α; compound 50 μM) was 2.16 °C and 2.21 °C.
